Data reported in the NIST ThermoML archive (doi:10.1021/je034254m).

Assay: excess molar enthalpy (molar enthalpy of mixing); xn = mol fraction of the nth substance listed
Conditions: Liquid, Flow calorimetry

CN1CCCC1=O [N-methylpyrrolidone] + CO
393.15 K, 1790 kPa
Conditions	excess molar enthalpy [kcal/mol]
x2 = 0.0576	-0.0354
x2 = 0.1114	-0.0657
x2 = 0.2093	-0.113
x2 = 0.2959	-0.146
x2 = 0.3732	-0.168
x2 = 0.4425	-0.18
x2 = 0.5051	-0.184
x2 = 0.5619	-0.183
x2 = 0.6136	-0.177
x2 = 0.6609	-0.167
x2 = 0.7043	-0.157
x2 = 0.7443	-0.143
x2 = 0.7813	-0.128
x2 = 0.8156	-0.113
x2 = 0.8475	-0.0968
x2 = 0.8772	-0.0817
x2 = 0.905	-0.0652
x2 = 0.931	-0.0488
x2 = 0.9554	-0.0323
x2 = 0.9784	-0.016
x2 = 0.9893	-0.00837

O=S1(=O)CCCC1 [sulfolane] + O
413.15 K, 1820 kPa
Conditions	excess molar enthalpy [kcal/mol]
x2 = 0.0621	0.0968
x2 = 0.1183	0.17
x2 = 0.2159	0.284
x2 = 0.3676	0.405
x2 = 0.48	0.443
x2 = 0.5667	0.445
x2 = 0.6355	0.428
x2 = 0.6915	0.401
x2 = 0.738	0.37
x2 = 0.7772	0.337
x2 = 0.8395	0.272
x2 = 0.8648	0.241
x2 = 0.887	0.211
x2 = 0.9067	0.181
x2 = 0.9243	0.152
x2 = 0.9401	0.125
x2 = 0.9544	0.0985
x2 = 0.9674	0.0727
x2 = 0.9792	0.0476
x2 = 0.99	0.0232
